# Experimental data from patent US20250339817A1, “A PROCESS FOR THE NITRIC OXIDE ABATEMENT THROUGH BIOLOGICAL TREATMENTS” (FUNDACIÓ EURECAT, priority 2022, published 2025).
# How the values were obtained:
# Format in all cases: physicochemical
# [1] = Mass transfer gas-to-liquid batch tests in a two-phase system with a mixture of gases (CO2/NO/NAP), NO; conditions: 1 h
# Experimental: (§1) Mass transfer gas-to-liquid batch tests with a mixture of gases with CO2 and NO were performed to determine the mass transfer rate and selectivity of these gases in the presence of NAP. The initial samples were filled with CO2 to reach a peak transmittance area between 6388 and 8018 cm^−1 and NO to reach a peak of transmittance area between 73 and 84 cm^−1, then 10 mL of each NAP (HTX, HNO and HEX) was injected. CO2 and NO in the gas phase were measured at the beginning and at the end of the test. All experiments were carried out per at least triplicate at a temperature of 25° C. and 100 rpm orbital shaking in an incubator. These tests had also a blank in which the NAP phase was replaced by phosphate buffer (pH=8).
# (§2) NO and CO2 peak area in the gas phase were measured by Fourier Transform Infrared Spectroscopy (FTIR). In these experiments the peak area was analyzed and not the concentration. Therefore, the performance of the tests will be given in percent (%) area reduction, which is defined in Eq 1. Nitrogen compounds were analyzed in liquid samples after being centrifuged at 15,000 rpm and filtration (0.22 μm) to separate the NAP found in the sample. NO2^− and NO3^− were measured using Hach Lange kits (LCK342 and LCK 339, respectively, Hach Lange, Germany).
# (§3) The initial area (Areainitial) is a quantitative measure of the transmittance at certain given wavelengths (NO=1730-1930 cm^−1; CO2=2230-2400 cm^−1) and correlates the presence of the compound in the sample at time=0 h. The final area (Areafinal) is a quantitative measure of the transmittance at the given wavelengths (NO=between 1730-1930 cm^−1; CO2=2230-2400 cm-1) and correlates with the presence of the compound in the sample at time=1 h.
# [2] = Mass transfer gas-to-liquid batch tests in a three-phase system (CO2/NO/Aqueous/NAP), NO; parameters: concentration or dose not given beside the values; conditions: phosphate buffer
# Experimental: (§4) Mass transfer gas-to-liquid batch tests with a mixture of gases with CO2 and NO were performed to determine the mass transfer rate and selectivity of these gases in the presence of NAP and aqueous phase. The results were compared with respect to blank (water or phosphate buffer at pH 8 without NAP). The initial samples were filled with CO2 to reach a peak transmittance area between 8010 and 8940 cm^−1 and NO to reach a peak of transmittance area between 11 and 14 cm^−1, then 10 mL of each NAP (HTX, HNO and HEX) was injected. Tests were performed with a phosphate buffer at pH 8 at a 10% v/v ratio of NAP/aqueous phase. All experiments were performed in 500 mL amber glass bottles previously prepared in a glove box to maintain an inert atmosphere and carried out per at least triplicate at a temperature of 25° C. and 100 rpm orbital shaking in an incubator. CO2 and NO in the gas phase were measured at the beginning and at the end of the test. Also, the liquid phase was monitored for pH, nitrite (NO2^−) and nitrate (NO3^−) at the end of each test.
# as §2, §3
# [3] = Mass transfer gas-to-liquid batch tests in a two-phase system with a mixture of gases (CO2/NO/NAP), CO2; conditions: 1 h
# Experimental: as §1, §2, §3
# [4] = Mass transfer gas-to-liquid batch tests in a three-phase system (CO2/NO/Aqueous/NAP), CO2; conditions: gas mixture, phosphate buffer
# Experimental: as §4, §2, §3
# [5] = Mass transfer gas-to-liquid tests in a two-phase system (CO2/NAP); conditions: pure CO2 (without gas mixture), 1 h
# Experimental: Mass transfer gas-to-liquid batch tests were performed to determine the mass transfer rate of CO2 in the presence of NAP. The initial samples were filled with CO2 to reach a peak transmittance area between 6200 and 7100 cm-1, then 10 mL of each NAP (HTX, HNO and HEX) was injected. […] CO2 in the gas phase were measured at the beginning and at the end of the test. All experiments were performed in 500 mL amber glass bottles previously prepared in a glove box to maintain an inert atmosphere and carried out per at least triplicate at a temperature of 25° C. and 100 rpm orbital shaking in an incubator.
# as §2, §3
# [6] = Nitric oxide (NO) absorption with pure NAPs (batch tests); conditions: pure NAP, first screening test, 1 hour, 25° C., initial NO 4500-5100 ppmv
# Experimental: Batch tests with pure NAPs were performed in 120 mL glass amber vials with an initial concentration of NO between 4500 and 5100 ppmv and different amounts of NAPs (DES, SO, HTX, HNO and HEX). For this experiment each NAP was added to a vial containing NO. Each NAP was tested alone. The results were compared with respect to a blank containing deionized water instead of NAP. All experiments were carried out at a temperature of 25° C. and agitation of 100 rpm in an incubator, five replicates were made per point. Gas phase analysis (NO and NO2) was performed at the beginning of the experiment and at the end (1 hour).
# NO and NO2 concentrations in the gas phase were measured by Fourier Transform Infrared Spectroscopy (FTIR) from an aliquot of 1 mL (PerkinElmer Inc., Spain). The NO removal efficiency in the tests was calculated from the difference in NO concentration from the beginning and end of each test. Nitrogen compounds and chemical oxygen demand (COD) were analyzed in liquid samples after centrifuged at 15,000 rpm and filtration (0.22 μm) to separate the NAP found in the sample. Nitrite and nitrate were measured using Hach Lange kits (LCK342 and LCK 339, respectively, Hach Lange, Germany). COD was measured using Hach Lange kits (LCK114 and LCK 214, respectively, Hach Lange, Germany).
SMILES,NO percent of area reduction [1],NO percent of area reduction ([2]; with CO2),NO percent of area reduction ([2]; without CO2),CO2 peak area reduction [3],CO2 peak area difference [4],CO2 peak area reduction [5],RE NO (NO removal efficiency) [6]
"CCCCCCCCCCCCCCCC [HEX, n-hexadecane]",31±6%,28±3%,26±5%,15±2%,8±2%,11±3%,29.2%
"CC(CC(C)(C)C)CC(C)(C)CC(C)(C)C (centres unmarked) [HNO, 2,2,4,4,6,8,8-heptamethylnonane]",21±4%,54±4%,32±4%,13±0.3%,3±7%,18±3%,–
"C[SiH](O[Si](C)(C)C)O[Si](C)(C)C [HTX, 1,1,1,3,5,5,5-heptamethyl-trisiloxane]",62±5%,56±7%,70±3%,97±0.9%,7±2%,99±0.2%,49.2%
